Measured values taken from paper PMC8481536, “Wells–Dawson phosphotungstates as mushroom tyrosinase inhibitors: a speciation study” (Scientific Reports, 2021).
Where two headings read alike, the source gives them in different places. Marks after values point to notes of the source that are not given here.

Molecular target: T1, AbPPO4 (Agaricus bisporus, UniProt C7FF05, S179N/V121A)
T1 construct: GST (glutathione-S-transferase) (N, cleaved yes); made in house; host or cells: E. coli BL21(DE3)
Assay type: biochemical
Parameters: α · Ki: unit not given here
Conditions: for Inhibition type / α (inhibition parameter) from the Lineweaver–Burk intercepts / Ki / α (inhibition parameter) from activity plot: 50 mM Na-citrate pH 6.8; for Inhibition type: L-DOPA substrate; for α · Ki: from Lineweaver-Burk ordinate intercepts vs [I], [S] 0.4-[…] (Table S5); for α (inhibition parameter) from activity plot: hyperbolic fit
Method: AbPPO4 was purified and activated according to Pretzler et al.[15]. […] The diphenolase activity of tyrosinase was monitored using 1 mM L-DOPA (Fig. S1A) as the substrate. Considering that the Wells–Dawson POT stability is pH and possibly time dependent, a speciation study was performed which is detailed in the paragraph "Speciation of Wells–Dawson POT by ^183W-NMR and ^31P-NMR analyses at pH 6.8". The concentration of the investigated Wells–Dawson phosphotungstates was in the range between 0 and 5 mM. If enzymatic inhibition was observed, data were taken in triplicates and fitted with a hyperbolic function (cf. SI Eq. (5)) from a mixed inhibition model to evaluate the Ki and α-parameters. […] (Fig. S1B) was additionally tested and evaluated applying exactly the same mathematical model.
The type of enzymatic inhibition is usually investigated by linear plots according to Lineweaver–Burk, also allowing for further validation of the inhibitory constant Ki.[9] […] The slopes (SI Eq. (13), insets in Figs. S14–S17) and ordinate intercepts of these regression lines were further evaluated to validate the inhibitory constant Ki and the α-parameter from the non-linear regression procedure. […] Similarly, the Lineweaver–Burk ordinate intercepts were evaluated for the α-parameter (cf. Table S5 and Table 1).
UV–VIS measurements were carried out on a Shimadzu UV 2401PC following the specific absorption of dopachrome at 475 nm (ε = 3700 M^−1 cm^−1[7]). For all measurements, 50 mM Na-citrate at pH 6.8 was used as the buffer agent to ensure physiological conditions. The stock solutions of POTs were prepared on the day of measurements and used within 3 days.
For a general 1 mL reaction setup in a polystyrene cuvette, 1 µg/mL AbPPO4 (~ 23 nM) was used to catalyze the reaction. The relative inhibition was investigated using 1 mM L-DOPA as the substrate and applying an inhibitor concentration range from 0 to 5 mM to obtain activity curves. For the Lineweaver–Burk plots, a L-DOPA concentration range of 0.4–1.5 mM was assayed for three different POT concentrations, respectively. […]
is the enzymatic reaction velocity, the maximal enzymatic velocity of the enzyme, the concentration for the half-maximal velocity and the substrate concentration. If enzyme inhibition is taken into account, apparent values (e.g., , , ) are employed. For all inhibition mechanisms the apparent maximal velocity is given by and the apparent Michalis-Menten constant is Equations (3) and (2) are inserted into equation (1). To obtain the relative inhibition (in %), is divided by the uninhibited enzymatic velocity .
Herein, [I] refers to the inhibitor concentration, Ki is the inhibition constant measuring the […]
The three ideal inhibition types are reflected by three limiting conditions for α, with α as quotient of the inhibition constant of the uncompetitive and competitive inhibition:
(A) 0 < α <<1: uncompetitive inhibition
(B) α = 1: non-competitive inhibition
(C) α >> 1: competitive inhibition […]
uncompetitive and non-competitive inhibition modes.
The concentration of L-DOPA was kept constant at 1 mM for all experiments.
The final hyperbolic equation (5) was used for the curve

[1] = L-DOPA 0.4-[…], three inhibitor concentrations, read-out: Ki (inhibition constant) from the Lineweaver–Burk slopes
[2] = hyperbolic fit of mixed inhibition model, 1 mM L-DOPA, 0-5 mM inhibitor, read-out: Ki (inhibition constant) from activity plot

T1 sequence (C7FF05 1-383 V121A/S179N): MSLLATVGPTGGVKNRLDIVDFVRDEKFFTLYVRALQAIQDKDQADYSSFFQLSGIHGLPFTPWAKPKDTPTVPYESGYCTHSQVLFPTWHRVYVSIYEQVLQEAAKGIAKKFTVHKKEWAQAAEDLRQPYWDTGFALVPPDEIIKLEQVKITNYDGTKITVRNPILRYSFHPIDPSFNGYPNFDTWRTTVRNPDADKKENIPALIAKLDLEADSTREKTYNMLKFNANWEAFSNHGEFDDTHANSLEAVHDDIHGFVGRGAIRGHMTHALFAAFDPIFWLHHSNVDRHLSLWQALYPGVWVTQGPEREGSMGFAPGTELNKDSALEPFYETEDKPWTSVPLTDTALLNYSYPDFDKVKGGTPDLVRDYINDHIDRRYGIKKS

Substance | Inhibition type | α (inhibition parameter) from the Lineweaver–Burk intercepts (L-DOPA 0.4-[…]) | Ki [1] [mM] | α · Ki | Ki [2] [mM] | α (inhibition parameter) from activity plot (1 mM L-DOPA)
K12[P^V2W^VI15O56]·24H2O [[P2W15]^12−] | mixed-type inhibition | 0.20 | 10.7 | 2.14 | 13.6 | 0.003
(NH4)12[H2P^V2W^VI12O48]·24H2O [[P2W12]^12−] | mixed-type inhibition | 0.28 | 5.6 | 1.58 | 7.5 | 0.017
K10[α2-P^V2W^VI17O61]·20H2O [[P2W17]^10−] | mixed-type inhibition | 0.01^a, 0.01^b | 10.6 | 0.10 | 6.5 | 0.01^a, 0.01^b
K6[α/β-P^V2W^VI18O62]·14H2O [[P2W18]^6−] | mixed-type inhibition | 0.22 | 13 | 2.85 | 9.7 | 0.013
